US20240026262A1, “METHODS AND DEVICES FOR EX-UTERO MOUSE EMBRYONIC DEVELOPMENT” (Yeda Research and Development Co. Ltd., priority 2021, published 2024)
“Also recorded” adds a separate entry of the source.

How the values were obtained:
mouse embryos = assay: Ex utero culture of mouse embryos from E6.5 in supplemented EUCM, proper embryo development per stage
Description: E5.5 and E6.5 embryos ex utero culture—Cultures starting with pre-gastrulation (E5.5) and early gastrulation (E6.5) embryos were effected in static culture conditions until the early somite stage. Embryos were dissected out of the uterus and individual embryos were transferred into each well of a 8-wells glass bottom/ibiTreat μ-plates (iBidi; 80827/80826) filled with 250 μl of EUCM. To optimize culturing conditions, different media, oxygen concentrations (5% or 21%), extracellular matrices (Matrigel), supplements (N2/B27), and gas pressures (hyperbaric 2.5 or 5 psi) were tested. Media was pre-heated for an hour in an incubator with 5% CO2 at 37° C. Pre-primitive streak stage embryos (distal and anterior visceral endoderm stage) were chosen for culture in the case of E5.5, and early-primitive streak stage embryos were selected for cultures beginning at E6.5. Only embryos with no evident damage and without Reichert's membrane were cultured. Half a volume of media was replaced every 24 hours. Embryos were transferred into the rotating culture at the 4-7 somite stage (three days for cultures started at E5.5 and two days for cultures started at E6.5) or at the late gastrulation stage using the same conditions described previously for E8.5, with the difference that embryos were maintained in a constant atmosphere of 21% oxygen and 5% CO2. Transfer of the embryos at earlier or later stages results in failure of further development. Dynamic oxygen conditions yielded slightly less efficiency for expanding E6.5-E11 than using constant 21% oxygen (FIGS. 10A-B). This difference could result from oxygen diffusion in static conditions being be less efficient than in roller conditions, and that might be why higher oxygen is needed to be delivered in protocols that include static conditions. To allow further culture of the embryos until the stage (E13.5), oxygen was increased to 95% from E10.5 onwards and at E11.5 the embryos were dissected out of the yolk sac and amnion carefully avoiding rupture of any major yolk sac blood vessels, but keeping the yolk sac and umbilical cord attached to the embryo. Morphological evaluation of mouse embryo development—Assessment of appropriate embryo development was performed based on previously established morphological features [Van Maele-Fabry, G., et al. Toxicol. Vitr. 4, 149-156 (1990); Van Maele-Fabry, G., et al. Int. J. Dev. Biol. 36, 161-167 (1992)]. Only embryos presenting all of the following features were considered as properly developed. Proper development at the morphological level from E5.5/E6.5 to E8.5 was assessed as follows: At E6.5, the embryos are constituted by three cell lineages: the cup-shaped pluripotent epiblast (Epi) and two extra-embryonic lineages, the extraembryonic ectoderm (ExE) and the visceral endoderm (VE). The cavities in the embryonic and extraembryonic compartments are unified to form the pro-amniotic cavity, radial symmetry is broken in the epiblast to initiate specification of the primitive streak. After 1 or 2 days of culture ex utero (depending on the time of culture initiation, E5.5 or E6.5), the embryos reach the neural plate stage equivalent to E7.5, with no allantoic bud or early bud. The amniotic folds fuse to form the amnion, and the chorion develops from the ExE and the extraembryonic mesoderm. These events generate three cavities in the embryo: amniotic, exocoelomic and ectoplacental cavities. A small allantois bud is present in some of the embryos, at the base of the primitive streak, and the anterior ectoderm begins to form the future neural groove. On the following day, cultured embryos present between 4 to 8 pairs of somites with the embryo curved dorsally, the yolk sac and yolk sac blood circulation has been established, the allantois started to fuse with the chorion, head folds are well-formed as well as the invaginating foregut and beating heart. […]

[1] = test system: neural tube closure in mouse embryos; assay: Teratogenic experiments in mouse embryos cultured ex utero since E7.5; settings: 1 mM in culture media from E8.5 to E9.5, n=6
Description: E7.5 embryo dissection and ex utero culture—Mouse embryos were obtained from non-hormone primed pregnant mice sacrificed by cervical dislocation at E7.5. Subsequently, embryos were dissected out from the uterus in dissection medium pre-equilibrated at 37° C. for 1 hour, consisting of DMEM (GIBCO 11880; includes already 1 mg/mL D-glucose and pyruvate, without phenol red and without L-glutamine) supplemented with 10% Fetal Bovine Serum (Biological Industries; 040131A), sterilized by using a 0.22 μm filter (JetBiofil; FCA-206-250). The embryos were carefully dissected from the decidua and parietal yolk sac leaving the intact ectoplacental cone attached to the egg cylinder. Briefly, the decidua was isolated from the uterine tissue and the tip of the pear-shaped decidua was cut. The decidua was then opened into halves by introducing the forceps adjacent to the embryo in parallel to its long axis and subsequently opening the forceps. Afterwards the embryo was grasped from the decidua and the parietal yolk sac was peeled off the embryo using two forceps. Embryo dissection was performed on a microscope equipped with a Tokai Hit thermo plate at 37° C., within a maximum of 30 minutes to avoid affecting the embryo developmental potential. […] Developmental stage of the embryos was determined according to Downs & Davies^5. […]

SMILES | effect on forebrain growth and forebrain defects (mouse embryos; 1 mM sodium pyruvate added to EUCM) | proper embryo development at E7.5 (mouse embryos; EUCM with additional 4 mg/ml glucose and 1 mM sodium pyruvate since E6.5, stage E7.5) | proper embryo development at E8.5 (embryos/total) (mouse embryos; EUCM with additional 4 mg/ml glucose and 1 mM sodium pyruvate since E6.5, stage E8.5) | proper embryo development at E9.5 (mouse embryos; EUCM with additional 4 mg/ml glucose and 1 mM sodium pyruvate since E6.5, stage E9.5) | proper embryo development at E10.5 (mouse embryos; EUCM with additional 4 mg/ml glucose and 1 mM sodium pyruvate since E6.5, stage E10.5) | proper embryo development at E11.5 (mouse embryos; EUCM with additional 4 mg/ml glucose and 1 mM sodium pyruvate since E6.5, stage E11.5) | proper embryo development at E12.5 (mouse embryos; EUCM with additional 4 mg/ml glucose and 1 mM sodium pyruvate since E6.5, stage E12.5) | effect on culture efficiency (mouse embryos; additional 4 mg/ml glucose and 1 mM sodium pyruvate in EUCM since E6.5) | teratogenic effect on neural tube closure [1]
CC(=O)C(=O)[O-].[Na+] [sodium pyruvate] | promotes forebrain growth and eliminates forebrain defects | 8/8 - 100% | 7/7 (1 attached) | 6/7 - 85.7% | 6/7 - 85.7% | 4/7 - 57% | 4/7 - 57% | helps to improve culture efficiency | –
CCCC(CCC)C(=O)O [valproic acid] | – | – | – | – | – | – | – | – | neural tube closure defects; also recorded: teratogenic effects of valproic acid on neural tube closure could be recapitulated
